Converted amounts (≈) assume the structure as drawn.
Key:
[1] = Inhibition of N-terminal His6-tagged Plasmodium falciparum DHODH expressed in Escherichia coli BL21 using L-DHO as substrate and CoQ as co-substrate by DCIP dye based spectrophotometric assay
[2] = Inhibition of N-terminal His6-tagged Plasmodium vivax DHODH expressed in Escherichia coli BL21 using L-DHO as substrate and CoQ as co-substrate by DCIP dye based spectrophotometric assay
[3] = test system: Plasmodium falciparum; assay: Antiplasmodial activity against Plasmodium falciparum 3D7 infected in RBC assessed as reduction in parasitemia incubated for 72 hrs by SYBR green dye-based assay; format: functional, organism-based; conditions: rbc
[4] = Inhibition of N-terminal His6-tagged dog DHODH expressed in Escherichia coli BL21 using L-DHO as substrate and CoQ as co-substrate by DCIP dye based spectrophotometric assay; set-up: species or system Canis lupus familiaris
[5] = Lipophilicity, logD of the compound at pH 7.4; format: physicochemical; conditions: buffer
[6] = Kinetic solubility of compound in phosphate buffer at pH 6.5 measured after 30 mins by HPLC-UV based analysis; format: physicochemical; conditions: phosphate buffer, pH 6.5, read-out: Kinetic_solubility
[7] = Protein binding in human plasma assessed as bound fraction by LC-MS analysis based ultracentrifugation assay; format: ADME, cell-free; conditions: read-out: PPB (converted)
[8] = Protein binding in rat plasma assessed as bound fraction by LC-MS analysis based ultracentrifugation assay; format: ADME, cell-free; conditions: read-out: PPB (converted)
[9] = Intrinsic clearance in rat liver microsomes assessed per mg protein at 1 uM by LC-MS analysis; format: ADME, Microsome; conditions: microsomes, 1 µM
[10] = Intrinsic clearance in mouse liver microsomes at 1 uM by LC-MS analysis; format: ADME, Microsome
[11] = Solubility of compound in 0.1 N HCl measured after 5 to 6 hrs by HPLC-UV based analysis; format: physicochemical; conditions: buffer; time 5-6 hrs
[12] = Solubility of compound in FeSSIF at pH 5 measured after 5 to 6 hrs by HPLC-UV based analysis; format: physicochemical; conditions: simulated gi fluid, time 5-6 hrs
[13] = Tmax in Swiss mouse at 20 mg/kg, po administered as single dose via gavage measured over 24 hrs by LC-MS analysis; format: ADME, organism-based; conditions: in vivo
[14] = Apparent half-life in Swiss mouse at 20 mg/kg, po administered as single dose via gavage measured over 24 hrs by LC-MS analysis; format: ADME, organism-based; conditions: in vivo
[15] = Cmax in Swiss mouse at 20 mg/kg, po administered as single dose via gavage measured over 24 hrs by LC-MS analysis; format: ADME, organism-based; set-up: route oral, dose 20 mg/kg, time >24; conditions: in vivo
[16] = AUC (0 to infinity) in Swiss mouse at 20 mg/kg, po administered as single dose via gavage measured over 24 hrs by LC-MS analysis; format: ADME, organism-based; set-up: route oral, dose 20 mg/kg, time >24; conditions: in vivo
[17] = Unbound Cmax in Swiss mouse at 20 mg/kg, po administered as single dose via gavage measured over 24 hrs by LC-MS analysis; format: ADME, organism-based; conditions: in vivo
[18] = Unbound AUC (0 to infinity) in Swiss mouse at 20 mg/kg, po administered as single dose via gavage measured over 24 hrs by LC-MS analysis; format: ADME, organism-based; conditions: in vivo
[19] = Elimination half-life in Swiss mouse at 20 mg/kg, po administered as single dose via gavage measured over 24 hrs by LC-MS analysis; format: ADME, organism-based; conditions: in vivo, read-out: beta t1/2 (converted)
[20] = Apparent half-life in Sprague-Dawley rat at […], iv administered as infusion for 10 mins by LC-MS analysis; format: ADME, organism-based; conditions: in vivo, dose 1.1 mg/kg, read-out: t1/2(app) (converted)
[21] = AUC (0 to infinity) in Sprague-Dawley rat at […], iv administered as infusion for 10 mins by LC-MS analysis; format: ADME, organism-based; set-up: route intravenous, dose 1.1 mg/kg, time 10 min; conditions: in vivo
[22] = Unbound clearance in Sprague-Dawley rat at […], iv administered as infusion for 10 mins by LC-MS analysis; format: ADME, organism-based; conditions: in vivo, dose 1.1 mg/kg
[23] = Volume of distribution at steady state in Sprague-Dawley rat at […], iv administered as infusion for 10 mins by LC-MS analysis; format: ADME, organism-based; conditions: in vivo, dose 1.1 mg/kg
[24] = Unbound volume of distribution at steady state in Sprague-Dawley rat at […], iv administered as infusion for 10 mins by LC-MS analysis; format: ADME, organism-based; conditions: in vivo, dose 1.1 mg/kg
[25] = Cmax in Sprague-Dawley rat at 18.3 mg/kg, po measured over 24 hrs by LC-MS analysis; format: ADME, organism-based; set-up: route oral, dose 18.3 mg/kg, time >24; conditions: in vivo
[26] = Unbound Cmax in Sprague-Dawley rat at 18.3 mg/kg, po measured over 24 hrs by LC-MS analysis; format: ADME, organism-based; conditions: in vivo
[27] = AUC (0 to infinity) in Sprague-Dawley rat at 18.3 mg/kg, po measured over 24 hrs by LC-MS analysis; format: ADME, organism-based; set-up: route oral, dose 18.3 mg/kg, time >24; conditions: in vivo
[28] = Unbound AUC (0 to infinity) in Sprague-Dawley rat at 18.3 mg/kg, po measured over 24 hrs by LC-MS analysis; format: ADME, organism-based; conditions: in vivo
[29] = Oral bioavailability in Sprague-Dawley rat at 18.3 mg/kg measured over 24 hrs by LC-MS analysis; format: ADME, organism-based; conditions: in vivo
[30] = Unbound AUC (0 to infinity) in Sprague-Dawley rat at […], iv by LC-MS analysis; format: ADME, organism-based; conditions: in vivo, dose 1.1 mg/kg
[31] = Inhibition of yeast DHODH expressed in Plasmodium falciparum; set-up: species or system Saccharomyces cerevisiae
[32] = Protein binding in Swiss mouse plasma at 20 mg/kg, po administered as single dose via gavage measured over 24 hrs by LC-MS analysis; format: ADME, organism-based; conditions: read-out: PPB (converted)
[33] = Protein binding in Sprague-Dawley rat plasma at […], iv administered as infusion for 10 mins by LC-MS analysis; format: ADME, organism-based; conditions: dose 1.1 mg/kg, read-out: PPB (converted)
[34] = in vivo; conditions: Sprague-Dawley, rat, po, 18.3 mg/kg
[35] = Solubility of compound in FaSSIF at pH 6.5 measured after 5 to 6 hrs by HPLC-UV based analysis

Work on `Cc1cc(NC2CCc3ccc(Br)cc3C2)n2nc(C(C)(F)F)nc2n1` (stereo in doubt) yielded an IC50 [1] of 4.6 nM, an IC50 [2] of 12 nM and an EC50 [3] of 0.39 nM. The IC50 [4] was over 100000 nM, the logD [5] was 4 and the solubility kinetic at 0.5 h [6] was 1.6 µg/mL (≈ 3.79 µM). The fraction unbound [7] was 0.037, the fraction unbound [8] was 0.028 and the “Intrinsic clearance in rat liver microsomes (uL/min/mg protein)” value [9] was 39 µL/min. For the same molecule, the intrinsic clearance [10] was 32 µL/min, the solubility [11] was 52 µg/mL (≈ 123 µM) and the solubility [12] was 39 µg/mL (≈ 92.4 µM). For the same molecule, the Tmax [13] was 1 h, the “t1/2(app)” value [14] was 2.1 h and the Cmax [15] was 4.5 µM. It also gave an AUC [16] of 16.7 µM·h, a fCmax [17] of 0.13 µM and a fAUC [18] of 0.47 µM·h. It also gave a half-life [19] of 2 h, a half-life at 10 min [20] of 6.1 h and an AUC(0-inf) at 10 min [21] of 2 µM·h. For the same molecule, the CL free [22] was 800 mL/min/kg, the Vdss [23] was 8.7 L/kg and the fVdss [24] was 311 L/kg. The Cmax [25] was 2.7 µM, the fCmax [26] was 0.07 µM and the AUC(0-inf) [27] was 28.1 µM·h. For the same molecule, the fAUC [28] was 0.79 µM·h, the bioavailability [29] was 86% and the fAUC [30] was 0.05 µM·h. The EC50 [31] was 7400 nM, the fraction unbound at 24 h [32] was 0.028 and the fraction unbound at 10 min [33] was 0.028. It also gave a Tmax at 24 h [34] of 3.3 h and a solubility [35] of 8.3 µg/mL (≈ 19.7 µM).

Source: ChEMBL document CHEMBL4706474, “Tetrahydro-2-naphthyl and 2-Indanyl Triazolopyrimidines Targeting Plasmodium falciparum Dihydroorotate Dehydrogenase Display Potent and Selective Antimalarial Activity” (J Med Chem, 2016)
